Experimental data taken from patent US11241427B2, “Small molecule modulators of NR2F6 activity” (Regen Biopharma, Inc., priority 2015, dated 2022).
Where two headings read alike, the source gives them in different places.

Target: T1, NR2F6 (ligand binding domain, amino acids 163-404) (Homo sapiens, UniProt P10588)
T1 construct: HIS (N, cleaved yes); FLAG (N, cleaved yes); TEV site (N, cleaved yes); made in house; host or cells: E. coli BL21 (DE3)
T1 sequence (P10588 163-404): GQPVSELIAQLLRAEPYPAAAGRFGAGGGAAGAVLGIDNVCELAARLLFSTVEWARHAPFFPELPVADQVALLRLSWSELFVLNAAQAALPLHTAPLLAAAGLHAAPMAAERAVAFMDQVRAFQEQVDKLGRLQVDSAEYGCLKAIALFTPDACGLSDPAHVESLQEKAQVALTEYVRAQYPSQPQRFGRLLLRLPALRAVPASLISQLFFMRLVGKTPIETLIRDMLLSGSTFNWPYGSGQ
Assay: Thermoshift analysis (TSA) of compound binding to NR2F6
Details: for Tm: NR2F6 alone Tm 48 °C
Description: The binding interaction between target protein NR2F6 and 139 compounds selected from an in silico screen was assessed using thermoshift analysis (TSA). Thermoshift is a physical technique used to determine the melting temperature of a protein. The interaction of the ligand to the folded state of the protein shifts the melting temperature. In the experimental system used, the NR2F6 protein is mixed with the ligand and the fluorescent dye SYPRO Orange®. The fluorescence is monitored over temperature gradient between 20 and 95° C. with 0.5° C. increment. The dye binds to the hydrophobic regions of molten globules and denatured proteins resulting in an increase of fluorescence. A plot of the fluorescence is obtained and used to determine the melting temperature in absence and presence of ligand.
The ligand binding domain of NR2F6 (amino acids 163-404) was cloned for soluble expression in E. coli with an N-terminal HIS-FLAG-TEV-tag. Expression was performed in BL21 (DE3) cells. In brief, a 12L E. coli culture was induced with IPTG in logarithmic phase and further incubated over night at 18° C. Cells were harvested via centrifugation, washed with buffer and stored at […] until purification.
The purification procedure performed consists of HIS affinity chromatography, tag cleavage, negative affinity chromatography, size exclusion chromatography and ion exchange chromatography.
Thermoshift analysis was performed on 139 Compounds that were stored as powder in DMSO stocks. A reaction volume of 25 μl was used, with reaction temperatures being increased in 0.5 increments from 20-95° C. in 96 well, PCR plates (Hard-Shell®, HSP-9655). The control was NR2F6 protein alone in 1% DMSO. For performing the reaction, a reaction buffer comprising of the following was utilized: 20 mM HEPES pH 6.85, 150 mM NaCl, 10% Glycerin and 0.5 mM TCEP.
The following pipetting sequence was used: 1) Add appropriate volume of target enzyme in reaction buffer; 2) Add appropriate volume of dye SYPRO Orange® in reaction buffer; 3) Add inhibitor in 100% DMSO (1% final DMSO conc); 4) Measure fluorescence
Fluorescence was quantified using a CFX Connect™ Real-Time PCR Detection System (BioRad)
An increase in melting temperature is indicative for compound binding.

[1] = Table 1.1, 100 μM compound, 0.5 mg/ml NR2F6, 1% DMSO
[2] = Table 1.1, 100 μM compound, shift versus NR2F6 alone (Tm 48 °C)
[3] = Table 1.1, 100 μM compound, shift versus NR2F6 alone (Tm 48 °C), read-out: delta Tm

Q: CCCCCC=CCC=CCC=CCC=CCCCC(=O)O [Cpd 84, 5,8,11,14-Eicosatetranoic acid] was tested. Which Tm [1] did it give?
A: 46.5 °C

Q: And the “delta Tm” value [2]?
A: −1.5 °C

Q: Which Tm [1] does the source give for Clc1ccc(-c2nc3sccn3c2/C=N/OCc2ccc(Cl)c(Cl)c2)cc1 [Cpd 85, CITCO] here?
A: 48 °C

Q: What about the “delta Tm” value [2] of the same compound?
A: 0 °C

Q: Which results are given for N[C@@H](Cc1cc(I)c(O)c(I)c1)C(=O)O [Cpd 86, 3,5-Diiodo-L-tyrosine]?
A: ΔTm at 100 µM: 2 °C; Tm [1]: 50 °C; Tm (Table 1.2, 100 μM compound): 50 °C

Q: For CO[C@H]1/C=C/O[C@@]2(C)Oc3c(C)c(O)c4c(O)c(c(/C=N/N5CCN(C)CC5)c(O)c4c3C2=O)NC(=O)/C(C)=C\C=C\[C@H](C)[C@H](O)[C@@H](C)[C@@H](O)[C@@H](C)[C@H](OC(C)=O)[C@@H]1C [Cpd 87, Rifampicin], which Tm [1] is on record?
A: 49.5 °C

Q: What about the ΔTm at 100 µM [3] of the same compound?
A: 1.5 °C

Q: What about the Tm (Table 1.2, 100 μM compound) of the same compound?
A: 49.5 °C

Q: How did the Tm [1] turn out when CC(C)=CCC/C(C)=C/CC/C(C)=C/CC/C(C)=C/CO [Cpd 88, Geranylgeranoil] was run?
A: 47.5 °C

Q: What about the “delta Tm” value [2] of the same compound?
A: −0.5 °C

Q: With CC/C=C\C/C=C\C/C=C\C/C=C\C/C=C\C/C=C\CCC(=O)O [Cpd 89, Docosa-4Z,7Z,10Z,13Z,16Z,19Z-hexaenoic acid] as the compound, how does the Tm [1] read?
A: 47.5 °C

Q: And the ΔTm at 100 µM [3]?
A: -0.5 °C

Q: With COc1ccc(NS(=O)(=O)c2cccc(NC(=O)c3ccc(Cl)nc3)c2)cc1 [Cpd 116] as the compound, how does the Tm [1] read?
A: 47.5 °C

Q: And the “delta Tm” value [2]?
A: −0.5 °C

Q: Which Tm [1] does the source give for CCN(CC)S(=O)(=O)c1ccc(/C=C/C(=O)Nc2ccc(Br)cc2F)cc1 [Cpd 117] here?
A: 48.5 °C

Q: What about the “delta Tm” value [2] of the same compound?
A: 0.5 °C

Q: For Clc1ccc(OCCN2CCN(c3ncnc4sccc34)CC2)cc1 [Cpd 120], which Tm [1] is on record?
A: 46.5 °C

Q: What about the “delta Tm” value [2] of the same compound?
A: −1.5 °C

Q: How did the Tm [1] turn out when CC(=O)c1c(C)[nH]c(C(=O)OCCCCN2C(=O)c3ccccc3C2=O)c1C [Cpd 121] was run?
A: 48 °C

Q: What about the “delta Tm” value [2] of the same compound?
A: 0 °C

Q: Which Tm [1] does the source give for Cc1cc(-n2c(C)cc(C(=O)CSc3ncnc4ccccc34)c2C)no1 [Cpd 122] here?
A: 47.5 °C

Q: And the “delta Tm” value [2]?
A: −0.5 °C

Q: Which Tm [1] does the source give for CCN(CC)S(=O)(=O)c1cccc(NC(=O)COC(=O)c2[nH]c(C)c(C(C)=O)c2C)c1 [Cpd 123] here?
A: 47.5 °C

Q: What about the “delta Tm” value [2] of the same compound?
A: −0.5 °C

Q: Which results are given for CC(=O)c1c(C)[nH]c(C(=O)COc2cc(C)ccc2C(C)C)c1C [Cpd 125]?
A: Tm [1]: 47.5 °C; delta Tm [2]: −0.5 °C

Q: How did the Tm [1] turn out when COc1ccc(CNc2ncnc3ccccc23)cc1 [Cpd 126] was run?
A: 47.5 °C

Q: What about the “delta Tm” value [2] of the same compound?
A: −0.5 °C

Q: For Cc1nn(C)c(C)c1NC(=O)COc1ccc(Cl)cc1Br [Cpd 127], which Tm [1] is on record?
A: 47.5 °C

Q: And the “delta Tm” value [2]?
A: −0.5 °C

Q: How did the Tm [1] turn out when N#CCSc1nnc(-c2sc3ccccc3c2Cl)o1 [Cpd 128] was run?
A: 48 °C

Q: And the “delta Tm” value [2]?
A: 0 °C

Q: How did the Tm [1] turn out when COc1ccc(CN(C)c2ccc(S(=O)(=O)N3CCN(C)CC3)cc2[N+](=O)[O-])cc1OC [Cpd 129] was run?
A: 47.5 °C

Q: And the “delta Tm” value [2]?
A: −0.5 °C

Q: How did the Tm [1] turn out when CCCCCCn1c(NCC)nc2c1c(=O)n(C)c(=O)n2C [Cpd 130] was run?
A: 47.5 °C

Q: And the “delta Tm” value [2]?
A: −0.5 °C

Q: What does the source list for CC(=O)c1ccc(N2CCN(C(=S)Nc3ccc(Oc4ccccc4)cc3)CC2)cc1 [Cpd 131]?
A: Tm [1]: 47.5 °C; delta Tm [2]: −0.5 °C

Q: Which results are given for O=C(Nc1ccncc1)c1ccc(Cl)c(S(=O)(=O)N2CCc3ccccc32)c1 [Cpd 132]?
A: Tm [1]: 47.5 °C; delta Tm [2]: −0.5 °C

Q: For CCN(CC)S(=O)(=O)c1cccc(NC(=O)CNc2cccc(S(=O)(=O)N3CCCC3)c2)c1 [Cpd 133], which Tm [1] is on record?
A: 49 °C

Q: What about the ΔTm at 100 µM [3] of the same compound?
A: 1 °C

Q: And the Tm (Table 1.2, 100 μM compound)?
A: 49 °C

Q: What does the source list for c1ccc(CNc2ncnc3ccccc23)cc1 [Cpd 134]?
A: Tm [1]: 47.5 °C; delta Tm [2]: −0.5 °C

Q: Cc1ccc(F)cc1NC(=O)Cc1nn(C)c(=O)c2ccccc12 [Cpd 135] was tested. Which Tm [1] did it give?
A: 47.5 °C

Q: What about the “delta Tm” value [2] of the same compound?
A: −0.5 °C

Q: For S=C(NCCc1ccccc1)Nc1cccc2cnccc12 [Cpd 136], which Tm [1] is on record?
A: 47.5 °C

Q: And the “delta Tm” value [2]?
A: −0.5 °C
